Assay results published in patent publication US12077503B2, “Substituted cyclic amides and their use as herbicides” (FMC CORPORATION, priority 2015, dated 2024).
Like-named read-outs stand apart in the source and are kept apart here.

Key:
Type in all cases: in vivo
[1] = test system: ryegrass, Italian (Italian ryegrass, Lolium multiflorum); assay: Test A preemergence; conditions: Lolium multiflorum, pre-emergence, 240 h, preemergence, 0 to 100 scale where 0 is no effect and 100 is complete control, read-out: Ryegrass, Italian plant response rating; for pest or weed control at 125 g/ha: 125 g ai/ha, visual injury rating, approximately 10 d; for pest or weed control at 500 g/ha: 500 g ai/ha
Procedure, shortened: (§1)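 Each rating is a visual injury score from 0 to 100 given about 10 d after treatment, judged against untreated controls kept alongside in the greenhouse. In loam soil–sand blend, seeds got a preemergence directed soil spray, while postemergence plants were 2 to 10 cm tall at spraying.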

[2] = test system: ragweed (common ragweed, Ambrosia elatior); assay: Test A preemergence; conditions: Ambrosia artemisiifolia, pre-emergence, 240 h, preemergence, 0 to 100 scale where 0 is no effect and 100 is complete control, read-out: Ragweed plant response rating; for pest or weed control at 125 g/ha: 125 g ai/ha, visual injury rating, approximately 10 d; for pest or weed control at 500 g/ha: 500 g ai/ha
Procedure, shortened: as §1

Kochia (Kochia scoparia) [3] = assay: Test A preemergence; conditions: Bassia scoparia, pre-emergence, 240 h, preemergence, 0 to 100 scale where 0 is no effect and 100 is complete control, read-out: Kochia plant response rating; for pest or weed control at 125 g/ha: 125 g ai/ha, visual injury rating, approximately 10 d; for pest or weed control at 500 g/ha: 500 g ai/ha
Procedure, shortened: as §1

[4] = test system: giant foxtail (Setaria faberii); assay: Test A preemergence; conditions: Setaria faberi, pre-emergence, 240 h, preemergence, 0 to 100 scale where 0 is no effect and 100 is complete control, read-out: Foxtail, Giant plant response rating; for pest or weed control at 125 g/ha: 125 g ai/ha, visual injury rating, approximately 10 d; for pest or weed control at 500 g/ha: 500 g ai/ha
Procedure, shortened: as §1

[5] = test system: barnyardgrass (Echinochloa crus-galli); assay: Test A preemergence; conditions: Echinochloa crus-galli, pre-emergence, 240 h, preemergence, 0 to 100 scale where 0 is no effect and 100 is complete control, read-out: Barnyardgrass plant response rating; for pest or weed control at 125 g/ha: 125 g ai/ha, visual injury rating, approximately 10 d; for pest or weed control at 500 g/ha: 500 g ai/ha
Procedure, shortened: as §1

[6] = test system: pigweed (Amaranthus retroflexus); assay: Test A preemergence; conditions: Amaranthus retroflexus, pre-emergence, 240 h, preemergence, 0 to 100 scale where 0 is no effect and 100 is complete control, read-out: Pigweed plant response rating; for pest or weed control at 125 g/ha: 125 g ai/ha, visual injury rating, approximately 10 d; for pest or weed control at 500 g/ha: 500 g ai/ha
[7] = test system: sedge, umbrella (small-flower umbrella sedge, Cyperus difformis); assay: Test B flooded paddy test; conditions: Cyperus difformis, 250 g ai/ha, Flood; 0 to 100 scale where 0 is no effect and 100 is complete control; read-out: Sedge, Umbrella plant response rating
Procedure, shortened: (§2)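 Rating scale 0–100 (visual, vs untreated controls) after a 13–15 d greenhouse period; application to the flood layer, 3 cm above soil and maintained; plants at 2-leaf stage when treated.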

rice (Oryra sativa) = assay: Test B flooded paddy test; conditions: Oryza sativa, 250 g ai/ha, Flood; 0 to 100 scale where 0 is no effect and 100 is complete control; read-out: Rice plant response rating
Procedure, shortened: as §2

[8] = test system: barnyardgrass (Echinochloa crus-galli); assay: Test B flooded paddy test; conditions: Echinochloa crus-galli, 250 g ai/ha, Flood; 0 to 100 scale where 0 is no effect and 100 is complete control; read-out: Barnyardgrass plant response rating
Procedure, shortened: as §2

[9] = test system: ducksalad (Heteranthera limosa); assay: Test B flooded paddy test; conditions: Heteranthera limosa, 250 g ai/ha, Flood; 0 to 100 scale where 0 is no effect and 100 is complete control; read-out: Ducksalad plant response rating
Procedure, shortened: as §2

corn (Zea mays) = assay: Test A postemergence; conditions: Zea mays, post-emergence, 240 h; for plant injury at 125 g/ha: 125 g ai/ha, read-out: Corn plant response rating (0 to 100 scale)
Procedure, shortened: as §1

Kochia (Kochia scoparia) [10] = assay: Test A postemergence; conditions: Bassia scoparia, post-emergence, 240 h; for pest or weed control at 125 g/ha: 125 g ai/ha, read-out: Kochia plant response rating (0 to 100 scale); for pest or weed control at 500 g/ha: 500 g ai/ha
Procedure, shortened: as §1

[11] = test system: Galium (catchweed bedstraw, Galium aparine); assay: Test A postemergence; conditions: Galium, post-emergence, 240 h; for pest or weed control at 125 g/ha: 125 g ai/ha, read-out: Galium plant response rating (0 to 100 scale); for pest or weed control at 500 g/ha: 500 g ai/ha
Procedure, shortened: as §1

[12] = test system: pigweed (Amaranthus retroflexus); assay: Test A postemergence; conditions: Amaranthus retroflexus, post-emergence, 240 h; for pest or weed control at 125 g/ha: 125 g ai/ha, read-out: Pigweed plant response rating (0 to 100 scale); for pest or weed control at 500 g/ha: 500 g ai/ha
Procedure, shortened: as §1

[13] = postemergence, visual injury vs untreated controls after approx. 10 d, 0 = no effect, 100 = complete control
[14] = Postemergence, visual rating about 10 d after treatment

| Structure (SMILES) | pest or weed control at 125 g/ha [1] | pest or weed control at 500 g/ha [1] | pest or weed control at 125 g/ha [2] | pest or weed control at 500 g/ha [2] | pest or weed control at 125 g/ha (Kochia (Kochia scoparia) [3]) | pest or weed control at 500 g/ha (Kochia (Kochia scoparia) [3]) | pest or weed control at 125 g/ha [4] | pest or weed control at 500 g/ha [4] | pest or weed control at 125 g/ha [5] | pest or weed control at 500 g/ha [5] | pest or weed control at 125 g/ha [6] | pest or weed control at 500 g/ha [6] | pest or weed control at 250 g/ha [7] | pest or weed control at 250 g/ha (rice (Oryra sativa)) | pest or weed control at 250 g/ha [8] | pest or weed control at 250 g/ha [9] | further results |
| --- | --- | --- | --- | --- | --- | --- | --- | --- | --- | --- | --- | --- | --- | --- | --- | --- | --- |
| O=C1NC[C@H](c2cccc(C(F)(F)F)c2)C1C(=O)Nc1c(F)cccc1CO (stereo partly drawn) [Compound 1240] | 0% | 0% | 0% | 0% | 0% | 0% | 0% | 0% | 0% | 0% | 0% | 0% | 0% | 0% | 0% | 0% | plant injury at 125 g/ha (corn (Zea mays); [13]): 0%; plant injury at 500 g/ha (corn (Zea mays); 500 g ai/ha, postemergence, 0 to 100 scale, 0 is no effect, 100 is complete control, read-out: Corn plant response rating): 0%; pest or weed control at 125 g/ha (Kochia (Kochia scoparia) [10]; [13]): 0%; pest or weed control at 500 g/ha (Kochia (Kochia scoparia) [10]; postemergence, 0 to 100 scale, 0 is no effect, 100 is complete control, read-out: Kochia plant response rating): 0%; pest or weed control at 125 g/ha [11, 13]: 0%; pest or weed control at 500 g/ha ([11]; postemergence, 0 to 100 scale, 0 is no effect, 100 is complete control, read-out: Galium plant response rating): 0%; pest or weed control at 125 g/ha [12, 13]: 0%; pest or weed control at 500 g/ha ([12]; postemergence, 0 to 100 scale, 0 is no effect, 100 is complete control, read-out: Pigweed plant response rating): 0% |
| COc1cc([C@H]2CN(C)C(=O)[C@@H]2C(=O)Nc2cccc(F)c2C)ccc1F [Compound 1300] | 0% | 60% | 0% | 80% | 0% | 60% | 90% | 90% | 90% | 90% | 0% | 40% | 0% | 25% | 65% | 80% | plant injury at 125 g/ha (corn (Zea mays); [14]): 20%; Corn plant response rating (crop injury, 0 = no effect, 100 = complete kill) at 500 g/ha (corn (Zea mays); Postemergence, 500 g ai/ha, visual injury, 0 to 100 scale (0 no effect, 100 complete control), approx. 10 d): 60%; pest or weed control at 125 g/ha (Kochia (Kochia scoparia) [10]; [14]): 0%; pest or weed control at 500 g/ha (Kochia (Kochia scoparia) [10]; Postemergence, visual injury, 0 to 100 scale (0 no effect, 100 complete control), approx. 10 d, read-out: Plant response rating, Kochia): 0%; pest or weed control at 125 g/ha [11, 14]: 20%; pest or weed control at 500 g/ha ([11]; Postemergence, visual injury, 0 to 100 scale (0 no effect, 100 complete control), approx. 10 d, read-out: Plant response rating, Galium): 40%; pest or weed control at 125 g/ha [12, 14]: 0%; pest or weed control at 500 g/ha ([12]; Postemergence, visual injury, 0 to 100 scale (0 no effect, 100 complete control), approx. 10 d, read-out: Plant response rating, Pigweed): 0% |
